Two compounds from patent US20120177710A1, “TOPICALLY APPLICABLE COMPOSITION FOR USE AS A SKIN BLEACHING AGENT” (DSM IP ASSETS B.V., priority 2005, published 2012) can be followed below.

The subject of this assay is MelanoDerm Mel-300B tissues of the dark skin type. Put plainly: Reduction in melanin content after treatment of MelanoDerm tissues of the dark skin type. In kind it is cell-based. The following applies: absorption at 450 nm, control = 100; for Melanin content in % 8 days of treatment, measured after 16 days: 10 mM per tissue topically, then a further eight days in normal medium without test substance; for Melanin content in % after 16 days of treatment: test substance applied topically as aqueous solution, 10 mM per tissue, renewed every 48 hours. How it is done: Determination of the Reduction in Melanin Content after the Treatment of Melanoderm Tissues of the Dark Skin Type with Test Substances
Test substances: compound 1 and cystamine as standard • Cultivation of the Tissues and Application of the Test Substances
The tissues, treated according to the manufacturer's instructions, were transferred to 6-well plates containing 3 ml of medium per well. The tissues were placed on membrane inserts (Transwell-Clear from Corning). 2 ml of medium were pipetted into the lower compartment and 1 ml of medium into the upper compartment. The test substances were applied topically as an aqueous solution at a rate of 10 mM per tissue. The medium and the test substance were renewed every 48 hours by rinsing the surface of the tissues with 500 μl of warm PBS and applying fresh test substance. After 8 days the test substance was removed from two tissues per treatment type and cultivation was continued for a further eight days with normal medium not containing test substance. The other two tissues per treatment type were incubated further with test substance. The experiment lasted a total of 16 days. • Extraction of the Melanin
The membranes with the pigmented epidermis were cut out of the holders with a scalpel and transferred to screw-capped Eppendorf tubes. 200 μl of 1% SDS in 10 mM Tris, 0.05 mM EDTA pH 6.8 and 20 μl of Proteinase K were pipetted into each tube. The Eppendorf tubes were incubated overnight in a Thermomixer at 45° C. The following morning a further 20 μl of Proteinase K were pipetted into each tube and incubation was continued for 6 hours. The lysate was rendered basic by the addition of 25 μl of 500 mM NaHCO3 and incubated in the Thermomixer for 30 min at 80° C. Fats and proteins were removed from the lysate by treatment with 200 μl of methanol/chloroform (2:1). 3×100 μl of supernatant were pipetted into a 96-well plate and the absorption was measured at 450 nm. • Results

Consider `N=C(N)NCCSSCCNC(=N)N` [Compound 1], for which the “Melanin content in % 8 days of treatment, measured after 16 days” value is 23% and the “Melanin content in % after 16 days of treatment” value is given as 12%.

Turning to `NCCSSCCN` [Cystamine (standard), bis(2-aminoethyl)disulfide], the “Melanin content in % 8 days of treatment, measured after 16 days” value is on record as 52% and the “Melanin content in % after 16 days of treatment” value is on record as 30%.
